Laboratory results as given in patent US6737383B1, “Herbicidal oxadiazolidines” (priority 1999, dated 2004).

Key:
[1] = system: bedstraw; experiment: Test B pre/postemergence bedstraw; type: in vivo, Galium aparine
Outline: (§1)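 Test chemicals in a non-phytotoxic solvent mixture with surfactant were sprayed preemergence onto planted seeds and postemergence onto plants 2 to 18 cm tall (1- to 4-leaf stage). After twelve to sixteen days in a greenhouse, injury was visually rated against untreated controls from 0 (no effect) to 10 (complete control).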

[2] = system: blackgrass; experiment: Test B pre/postemergence blackgrass; type: in vivo, Alopecurus myosuroides
Outline: as §1

[3] = system: surinam grass; experiment: Test B pre/postemergence surinam grass; type: in vivo, Brachiaria decumbens
Outline: as §1

[4] = system: cocklebur; experiment: Test B pre/postemergence cocklebur; type: in vivo, Xanthium strumarium
Outline: as §1

[5] = system: corn; experiment: Test B pre/postemergence corn; type: in vivo, Zea mays
Outline: as §1

[6] = system: giant foxtail; experiment: Test B pre/postemergence giant foxtail; type: in vivo, Setaria faberii
Outline: as §1

[7] = system: morningglory; experiment: Test B pre/postemergence morningglory; type: in vivo, Ipomoea hederacea
Outline: as §1

[8] = system: pigweed; experiment: Test B pre/postemergence pigweed; type: in vivo, Amaranthus retroflexus
Outline: as §1

[9] = system: rape; experiment: Test B pre/postemergence rape; type: in vivo, Brassica napus
Outline: as §1

[10] = system: soybean; experiment: Test B pre/postemergence soybean; type: in vivo, Glycine max
Outline: as §1

[11] = system: sugar beet; experiment: Test B pre/postemergence sugar beet; type: in vivo, Beta vulgaris
Outline: as §1

[12] = system: velvetleaf; experiment: Test B pre/postemergence velvetleaf; type: in vivo, Abutilon theophrasti
Outline: as §1

[13] = system: purple nutsedge; experiment: Test B pre/postemergence purple nutsedge; type: in vivo, Cyperus rotundus
Outline: as §1

[14] = system: smallflower flatsedge; experiment: Test B flood test smallflower flatsedge; type: in vivo, Cyperus difformis
Outline: (§2)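 Read-out is a visual response score from 0 (no effect) to 10 (complete control), assigned by comparison with untreated controls. Treatment was applied at the 2-leaf stage, and plants stayed in the greenhouse for twelve to sixteen days before scoring.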

[15] = system: duck salad; experiment: Test B flood test duck salad; type: in vivo, Heteranthera limosa
Outline: as §2

[16] = system: bamyardgrass; experiment: Test B flood test barnyardgrass; type: in vivo, Echinochloa crus-galli
Outline: as §2

[17] = Postemergence, Rate 250 g/ha, scale 0 to 10, 0 no effect, 10 complete control
[18] = Preemergence, Rate 62 g/ha, scale 0 to 10 (0 no effect, 10 complete control)
[19] = Preemergence, Rate 125 g/ha, scale 0 to 10 (0 no effect, 10 complete control)
[20] = Preemergence, Rate 250 g/ha, scale of 0 to 10 where 0 is no effect and 10 is complete control
[21] = Preemergence, Rate 500 g/ha, scale 0 (no effect) to 10 (complete control)
[22] = Rate 125 g/ha, Postemergence, scale 0 to 10, 0 no effect, 10 complete control
[23] = Rate 500 g/ha, Postemergence, scale 0 to 10, 0 no effect, 10 complete control
[24] = Postemergence, Rate 62 g/ha, scale 0 to 10, 0 is no effect, 10 is complete control
[25] = Rate 125 g/ha, Postemergence section (flood test species), scale 0 to 10, 0 no effect, 10 complete control
[26] = Rate 500 g/ha, listed under Postemergence (flood test species), scale 0 to 10, 0 no effect, 10 complete control
[27] = flood test, listed under Postemergence, Rate 250 g/ha, scale 0 to 10, 0 no effect, 10 complete control

With Cc1cc(C)c(-n2c(=O)on(C(=O)N(c3ccc(F)cc3)C(C)C)c2=O)c(C)c1 [Compound 60] the “Bedstraw plant response rating” value [1, 17] was 7, the “Bedstraw plant response rating” value [1, 18] was 0 and the “Plant response rating, Bedstraw” value [1, 19] was 0. The “Plant response rating, Bedstraw” value [1, 20] was 0, the “Bedstraw plant response rating” value [1, 21] was 5 and the “Bedstraw plant response rating” value [1, 22] was 7. For the same molecule, the “Bedstraw plant response rating” value [1, 23] was 7, the “Blackgrass plant response rating” value [2, 24] was 0 and the “Blackgrass plant response rating” value [2, 17] was 0. For the same molecule, the “Blackgrass plant response rating” value [2, 18] was 0, the “Plant response rating, Blackgrass” value [2, 19] was 0 and the “Plant response rating, Blackgrass” value [2, 20] was 0. The “Blackgrass plant response rating” value [2, 21] was 0, the “Blackgrass plant response rating” value [2, 22] was 0 and the “Blackgrass plant response rating” value [2, 23] was 0. The “B. signalgrass plant response rating” value [3, 24] was 0, the “B. signalgrass plant response rating” value [3, 17] was 0 and the “B. signalgrass plant response rating” value [3, 18] was 0. The “Plant response rating, B. signalgrass” value [3, 19] was 0, the “Plant response rating, B. signalgrass” value [3, 20] was 0 and the “B. signalgrass plant response rating” value [3, 21] was 0. For the same molecule, the “B. signalgrass plant response rating” value [3, 22] was 0, the “B. signalgrass plant response rating” value ([3]; Rate 500 g/ha, Postemergence, scale of 0 to 10 where 0 is no effect and 10 is complete control) was 0 and the “Cocklebur plant response rating” value [4, 24] was 0. For the same molecule, the “Cocklebur plant response rating” value [4, 17] was 0, the “Cocklebur plant response rating” value [4, 18] was 0 and the “Plant response rating, Cocklebur” value [4, 19] was 0. For the same molecule, the “Cocklebur plant response rating” value [4, 22] was 0, the “Cocklebur plant response rating” value [4, 23] was 0 and the “Corn plant response rating” value [5, 24] was 0. For the same molecule, the “Corn plant response rating” value [5, 17] was 0, the “Corn plant response rating” value [5, 18] was 0 and the “Plant response rating, Corn” value [5, 19] was 0. The “Plant response rating, Corn” value [5, 20] was 0, the “Corn plant response rating” value [5, 21] was 0 and the “Corn plant response rating” value [5, 22] was 0. For the same molecule, the “Corn plant response rating” value [5, 23] was 0, the “Giant foxtail plant response rating” value [6, 24] was 0 and the “Giant foxtail plant response rating” value [6, 17] was 0. The “Giant foxtail plant response rating” value [6, 18] was 3, the “Plant response rating, Giant foxtail” value [6, 19] was 3 and the “Plant response rating, Giant foxtail” value [6, 20] was 4. For the same molecule, the “Giant foxtail plant response rating” value [6, 21] was 5, the “Giant foxtail plant response rating” value [6, 22] was 0 and the “Giant foxtail plant response rating” value [6, 23] was 0. For the same molecule, the “Morningglory plant response rating” value [7, 24] was 1, the “Morningglory plant response rating” value [7, 17] was 2 and the “Morningglory plant response rating” value [7, 18] was 0. The “Plant response rating, Morningglory” value [7, 19] was 0, the “Plant response rating, Morningglory” value [7, 20] was 0 and the “Morningglory plant response rating” value [7, 21] was 0. For the same molecule, the “Morningglory plant response rating” value [7, 22] was 2, the “Morningglory plant response rating” value [7, 23] was 2 and the “Redroot pigweed plant response rating” value [8, 24] was 2. The “Redroot pigweed plant response rating” value [8, 17] was 4, the “Redroot pigweed plant response rating” value [8, 18] was 0 and the “Plant response rating, Redroot pigweed” value [8, 19] was 0. The “Plant response rating, Redroot pigweed” value [8, 20] was 0, the “Redroot pigweed plant response rating” value [8, 21] was 0 and the “Redroot pigweed plant response rating” value [8, 22] was 4. For the same molecule, the “Redroot pigweed plant response rating” value [8, 23] was 6, the “Rape plant response rating” value [9, 24] was 0 and the “Rape plant response rating” value [9, 17] was 0. The “Rape plant response rating” value [9, 18] was 0, the “Plant response rating, Rape” value [9, 19] was 0 and the “Plant response rating, Rape” value [9, 20] was 0. For the same molecule, the “Rape plant response rating” value [9, 21] was 0, the “Rape plant response rating” value [9, 22] was 0 and the “Rape plant response rating” value [9, 23] was 4. The “Soybean plant response rating” value [10, 24] was 2, the “Soybean plant response rating” value [10, 17] was 3 and the “Soybean plant response rating” value [10, 18] was 0. The “Plant response rating, Soybean” value [10, 19] was 0, the “Plant response rating, Soybean” value [10, 20] was 0 and the “Soybean plant response rating” value [10, 21] was 0. For the same molecule, the “Soybean plant response rating” value [10, 22] was 3, the “Soybean plant response rating” value [10, 23] was 3 and the “Sugarbeets plant response rating” value [11, 24] was 0. The “Sugarbeets plant response rating” value [11, 17] was 0, the “Sugarbeets plant response rating” value [11, 18] was 0 and the “Plant response rating, Sugarbeets” value [11, 19] was 0. The “Plant response rating, Sugarbeets” value [11, 20] was 3, the “Sugarbeets plant response rating” value [11, 21] was 5 and the “Sugarbeets plant response rating” value [11, 22] was 0. For the same molecule, the “Sugarbeets plant response rating” value [11, 23] was 0, the “Velvetleaf plant response rating” value [12, 24] was 0 and the “Velvetleaf plant response rating” value [12, 17] was 0. The “Velvetleaf plant response rating” value [12, 18] was 0, the “Plant response rating, Velvetleaf” value [12, 19] was 0 and the “Plant response rating, Velvetleaf” value [12, 20] was 0. The “Velvetleaf plant response rating” value [12, 21] was 0, the “Velvetleaf plant response rating” value [12, 22] was 0 and the “Velvetleaf plant response rating” value [12, 23] was 0. For the same molecule, the “Nutsedge plant response rating” value [13, 24] was 0, the “Nutsedge plant response rating” value [13, 17] was 0 and the “Nutsedge plant response rating” value [13, 18] was 0. For the same molecule, the “Plant response rating, Nutsedge” value [13, 19] was 0, the “Plant response rating, Nutsedge” value [13, 20] was 0 and the “Nutsedge plant response rating” value [13, 21] was 0. The “Nutsedge plant response rating” value [13, 22] was 0, the “Nutsedge plant response rating” value [13, 23] was 0 and the “S. Flatsedge plant response rating” value [14, 24] was 0. For the same molecule, the “S. Flatsedge plant response rating” value [14, 25] was 0, the “S. Flatsedge plant response rating” value [14, 26] was 0 and the “S. Flatsedge plant response rating” value [14, 27] was 0. The “Ducksalad plant response rating” value [15, 24] was 0, the “Ducksalad plant response rating” value [15, 25] was 0 and the “Ducksalad plant response rating” value [15, 26] was 0. For the same molecule, the “Ducksalad plant response rating” value [15, 27] was 0, the “Barnyardgrass plant response rating” value [16, 24] was 0 and the “Barnyardgrass plant response rating” value [16, 25] was 0. For the same molecule, the “Barnyardgrass plant response rating” value [16, 26] was 0 and the “Barnyardgrass plant response rating” value [16, 27] was 0.
